Melting point data for 93 compounds are collected here from a melting point compilation (Tetko et al.; mined from patent text by program, amines drawn as free bases though some values may be those of a salt).

Where only a bound is given, the exact number is not on record here.

For orientation: melting point means the temperature, or range, at which the solid turns liquid. As for `CCNS(=O)(=O)c1cccc(OCc2nc3ccccc3s2)c1`, the melting point is 111 to 113 °C.
In the case of `CC1=C(C(=O)OC(C)(C)C)C(c2ccc(Br)cc2F)C(C(=O)OC(C)(C)C)=C(C)N1` it was 187 to 188 °C.
In the case of `COc1ccc(C2(C)C(=O)c3c(N4CCN(C)CC4)cc(Cl)cc3N(Cc3ccccc3)C2=O)cc1` (stereo not drawn) it was 66 to 67 °C; in that of `O=C1CCC(c2ccc(Cl)c(Cl)c2)c2ccccc2N1` (stereo not drawn), 191 to 194 °C.
In the case of `CS(=O)(=O)OCCN(CCI)c1c(C(=O)NCCOP(=O)(O)O)cc([N+](=O)[O-])cc1[N+](=O)[O-]` it was 147 to 150 °C; in that of `CCCCCCCCC(O)C=Cc1cccc(Oc2cccc(C(=O)O)c2)n1` (racemic), 85 to 87 °C; in that of `CCOC(=O)C1(C(=O)OCC)Oc2ccc(CN/C=C3\C(=O)NC(=O)c4ccc(Br)cc43)cc2O1`, 222 to 223 °C.
In turn, `O=S1C(c2cccc(-c3ccc(O)c(C45CC6CC(CC(C6)C4)C5)c3)n2)=CN=C1N1CCOCC1` (stereo not drawn) showed a melting point of 339 to 343 °C.
Then `C=C1CC(C(O)=Nc2cc(Cl)cc(Cl)c2)C1C(=O)O` (stereo not drawn), with 119 °C.
In the case of `Cc1nc(-c2ccc(C(F)(F)F)cc2)sc1CSc1ccc(OCC(=O)O)c2ccccc12` it was 181 to 183 °C; in that of `CNC(=O)C1SCOC(=NO)S1` (stereo not drawn), 99 to 102 °C; in that of `CCOc1ccccc1C(=O)CCC(=O)O`, 125 to 127 °C.
In the case of `OC[C@H]1COc2cc(Cl)ccc2O1` it was 73 to 75 °C; in that of `COc1ccc2c(=O)c(O)cn(C)c2c1`, 228 °C.
`CCCCCC(C)C(C)c1cc(O)c2c(c1)OC(C)(C)C1=C2CN(CC(=O)NC(=O)Nc2ccccc2)CC1` (stereo not drawn) returned a melting point of 159 to 161 °C.
In the case of `CC(O)c1ccc(CCNS(=O)(=O)c2ccc(Br)cc2)cc1` (stereo not drawn) it was 125 to 127 °C.
In the case of `Cc1sc(-c2ccc(C(F)(F)F)cc2)nc1O` it was 232 to 233 °C.
In the case of `O=[N+]([O-])c1ccc2oc(-c3ccco3)nc2c1` it was 175 to 177 °C.
For the compound `Cc1c[nH]c2cccc(C3CCCNC3)c12` (stereo not drawn), the melting point was determined as 150 °C.
Then `COC1=CC23CCN(C=O)C(Cc4cccc(OC)c42)C3CC1` (stereo not drawn), with 169 to 172 °C.
Turning to `Cc1nc(N2CCN(Cc3ccc(F)cc3)C2=O)sc1-c1cc[nH]n1`, the melting point was in the range of 239 to 242 °C.
Then `CCOC(=O)n1cc(C#N)c(-c2cccc(Cl)c2F)c1`, with 149 °C.
In the case of `CCCc1nc2nccc(C)c2[nH]1` it was 110 to 112 °C.
`O=C(O)C(c1ccccc1)n1nnc(C(c2ccccc2)c2ccccc2)n1` (stereo not drawn) registered a melting point of 158 to 161 °C.
Then `COC(=O)CCC1=NC=C(c2ccc3c(c2)NC(=O)CO3)C(c2ccccc2)S1` (stereo not drawn), with 119 to 121 °C; and `CC(=O)c1cccc2c1CCc1ccccc1C2=O`, with 65 to 68 °C; and `Cc1cccc(-c2[nH]c(C(C)C)nc2-c2cccc(-c3ccc(S(C)(=O)=O)cc3)c2)n1`, with 104 to 106 °C.
Then `CCCNC(=O)Nc1ccc(N)cc1C(=O)NCC1CCN(C(c2ccccc2)c2ccccc2)CC1`, with 213 to 214 °C.
Then `NC(=CC(=O)c1ccccn1)C1CC1`, with 145 to 150 °C; and `Cc1ccc2nc(C3(c4ccc(S(N)(=O)=O)cc4)C=C(C(F)(F)F)NN3)sc2c1` (stereo not drawn), with 257 to 258 °C.
The compound `Nc1ccccc1C(=O)OCN1C(=O)c2ccccc2C1=O` had a melting point of 160 to 162 °C.
In the case of `Cc1ccc2nc(N3CC[C@@H](O)C3)ccc2c1NC(=O)CC1CCCCC1` it was 248 to 249 °C; in that of `Cc1nc(Sc2cc(C(F)(F)F)ccn2)sc1CC(=O)O`, 122 to 123 °C.
Then `COc1ccc2nc(NC(=O)CO)sc2c1`, with 208 to 209 °C; and `O=C1Cc2cc(C(F)(F)F)ccc2N1`, with 188 to 190 °C.
Then `CCOC(=O)CN1C(=O)c2ccc3ccccc3c2S1(=O)=O`, with 149 to 150 °C.
In turn, `CCc1nc2c([nH]1)C(=O)N1CCN=C1N2Cc1ccc(Cl)cc1` registered a melting point of 278 to 279 °C.
Turning to `CCC(=O)c1c(OC)cccc1OC`, the melting point was 43 to 45 °C.
Then `O=C(NCC(=O)c1cccs1)c1ccc(F)cc1`, with 147 to 148 °C.
In the case of `CC(C)(C)NC1=NCCNC(c2ccccc2)=C1` it was 93 to 97 °C; in that of `CNC(=NC#N)NCCSCc1csc(NC(N)=NC(=O)c2ccccc2)n1`, 179 to 181 °C.
In the case of `O=C(Nc1ccc(Sc2ccncc2)cc1)c1ccc([N+](=O)[O-])cc1` it was 295 to 298 °C; in that of `COc1ccc2cc(CN(C)C(=O)c3cn(C)c4ccccc34)ccc2c1Br`, 168 to 169 °C.
`Nc1cccc(CN2CCN(C(c3ccccc3)c3ccccc3)CC2)n1`: the melting point was in the range of 144 to 145 °C.
Take `CCS(=O)C1(Cl)CC2CC(=O)N2C1C(=O)OCc1ccccc1` (stereo not drawn): the melting point lay in the range of 123 to 125 °C.
Then `CCOC(=O)C1=C(COCCNC(=O)c2cccnc2)NC(C)=C(C(=O)OC)C1c1ccccc1Cl` (stereo not drawn), with 81 to 84 °C; and `COc1cccc(C(O)c2cc3ccccc3s2)c1` (stereo not drawn), with 63 to 65 °C.
Then `CC(=O)Nc1nnc2c3c(c(N4CCOCC4)nn12)CCCC3`, with 147 to 149 °C.
With `Cc1oc2ccc(-n3nnc4cccnc43)cc2c1C`, the melting point fell in the range of 152 to 153 °C.
With `CON(C)C(=O)c1cc2c(Sc3ccc(C)cc3)cncc2s1`, the melting point lay within 103 to 107 °C.
In the case of `CCc1cccc(-c2ccc(S(=O)(=O)N3c4ccccc4CC3C(=O)NCc3ccc(CC(=O)OC)cc3)cc2)c1` (stereo not drawn) it was 70 to 75 °C; in that of `CC(=O)NC[C@H]1CN(c2ccc(N=C=S)c(F)c2)C(=O)O1`, 172 to 176 °C; in that of `CCCCCCCCCCCCOC(=O)c1cc([N+](=O)[O-])c(C(=O)O)cc1C(=O)O`, 148 °C.
In the case of `COc1cc(C(O)C(C)C)cc2c1OC(C)(C)C2` (stereo not drawn) it was 113 to 116 °C.
Then `CCCCNC(=NC#N)Nc1ccc(C2=NNC(=O)CC2C)cc1` (stereo not drawn), with 184 to 186 °C.
In turn, `ClCCOc1ccc(CBr)cc1` registered a melting point of 64 to 66 °C.
Then `O=C(NCc1ccc(Cl)cc1)c1cn(Cc2cccnc2)c2sc(CN3CCOCC3)cc2c1=O`, with 214 to 215 °C; and `O=c1ssc(-c2cnccn2)c1CBr`, with 119 °C; and `CN(C)C(Cl)=Nc1snc(C(C)(C)C)c1C#N`, with 94 to 100 °C.
Then `COc1cc(-c2cnc3[nH]cc(C(=O)C(C)C)c3n2)cc(OC)c1OC`, with 189 to 190 °C; and `OCC1OC(c2n[nH]c3cncnc23)C(O)C1O` (stereo not drawn), with 227 to 228 °C.
Then `Fc1ccc(/C=C/c2nc(COc3ccc(CCCCn4ccnn4)cc3)co2)c(F)c1`, with 115 to 117 °C; and `CC(C)(C)NCC(O)COc1ccc2nc(S(N)(=O)=O)sc2c1` (stereo not drawn), with 195 to 196 °C; and `CN1C(=O)CC[C@]2(C)c3ccc(-c4c(F)cccc4F)cc3CC[C@@H]12`, with 125 to 130 °C.
As to `O=S(=O)(Nc1cc(Cl)cc(Cl)c1)c1cc(Br)ccc1O`, the melting point lay within 158 to 159 °C.
In the case of `CCCCn1c(S)nc2ccccc2c1=O` it was 167 to 172 °C; in that of `COc1ccccc1C(=O)Nc1nc2c(s1)CN(C)CC2`, 164 to 166 °C.
Then `CC(=O)Nc1ccc(OC(=O)C2CSC(=O)N2)cc1` (stereo not drawn), with 204 to 205 °C.
Then `CC(=O)OC1COC(SCCCCCCOC2CCC3(C)C(=CCC4C3CCC3(C)C(C(C)CCCC(C)C)CCC43)C2)C(OC(C)=O)C1OC(C)=O` (stereo not drawn), with 106 to 108 °C; and `CCCCN1N=C(c2ccc3c(c2)C(C)(C)CC(=O)N3C)C(C)CC1=O` (stereo not drawn), with 137 to 139 °C; and `COc1ccc2c(c1F)OCc1c(C(F)(F)F)nn(-c3ccc(S(N)(=O)=O)cc3)c1-2`, with 133 to 138 °C.
Compound `NS(=O)(=O)c1ccccc1C(=O)c1cccs1` came in with a melting point of 122 to 125 °C.
In the case of `NCC(CC(=O)O)C1CCCC1` (stereo not drawn) it was 178 to 180 °C.
Compound `CCc1cccc(C)c1CNc1cc(C(=O)O)cn2nc(C)nc12` registered a melting point of 264 °C.
With `CCOCCc1c(-c2ccc(OC)cc2)nc(N)n2ncnc12`, the melting point lay within 176 to 177 °C.
In the case of `COC(=O)c1ccc(C(=O)c2c(C)c(OCc3cccc(OC)c3)c3ccccn23)cc1` it was 106 °C.
In the case of `Cc1ccc([N+](=O)[O-])cc1CCl` it was 56 to 62 °C; in that of `Cc1c(NC(=O)CC(C)(C)C)c2c(c3c1C(c1ccc(C(C)C)cc1)CO3)CCCC2` (stereo not drawn), 183 to 184 °C; in that of `COc1c(C)c(Cl)c(C)c(Cl)c1CNC(=O)CCl`, 205 to 206 °C.
In the case of `C[C@H](C#Cc1ccc(CCc2ccc(F)cc2)s1)N(O)C(N)=O` it was 126 to 128 °C; in that of `O=c1nc(-c2ccccc2)c2cc([N+](=O)[O-])ccc2n1CC(F)(F)F`, 195 to 196 °C; in that of `O=c1c(Cl)c(SCc2ccc(Cl)cc2)cnn1-c1ccccc1`, 154 to 155 °C.
For `CN1C(=O)[C@H](NC(=O)Nc2ccc3c(c2)CCC3)N=C(c2ccccc2)c2ccccc21`, the melting point was in the range of 156 to 158 °C.
Then `Nc1[nH]ncc1C(=O)c1cccs1`, with 114 to 115 °C.
Then `Cc1cc(C)n(-c2nc(Nc3cccc(C(F)(F)F)c3)c3ccccc3n2)n1`, with 233 to 240 °C; and `CN1CCc2nc3cc(Cl)ccc3c(-c3cccs3)c2C1`, with 131 to 132 °C.
Then `CCCCc1ncc(C(=O)O)s1`, with 97 °C; and `N#Cc1cccc(C(Cl)(Cl)Cl)c1Cl`, with 106 to 107 °C; and `Cc1cc(C)n2nc(S(=O)(=O)Cl)c(C#N)c2n1`, with 138 °C.
Take `Cc1cc(C)c(Nc2nc(C)ccc2S(=O)(=O)c2ccc(F)c(Cl)c2)c(C)c1`: the melting point was in the range of 139 to 141 °C.
For the compound `COC(=O)C1CCC2C3CCC4CC(O)C(O)CC4(C)C3C(NC3CCCCC3)CC12C` (stereo not drawn), the melting point is 199 to 202 °C.
Then `O=C(O)c1cccc2c(=O)c3ccccc3[nH]c12`, with over 300 °C; and `Cc1nn(C)c(Oc2ccccn2)c1C=O`, with 56 to 57 °C.
